# Test results from publication PMC7144182, “Synthesis, biological evaluation and molecular modelling of 2,4-disubstituted-5-(6-alkylpyridin-2-yl)-1H-imidazoles as ALK5 inhibitors” (Journal of Enzyme Inhibition and Medicinal Chemistry, 2020).
# Several values for one entry are separate records, joined by “and”; a condition that tells them apart may be missing. Equal entries are not always repeated. Marks after values point to notes of the source that are not given here.
# Columns and labels:
# [1] = tested on: TGF-β1-induced luciferase reporter activity, HaCaT (3TP-luc) stable cells; assay: Cell-based p3TP-luciferase reporter assay; conditions: for p3TP-luciferase activity (% control): 0.1 μM inhibitor, TGF-β1 2 ng/mL, 24 h, mean ± SD of three independent experiments; for % inhibition in luciferase reporter assay: 0.1 µM inhibitor
# Experimental: To establish HaCaT (3TP-luc) stable cells, cells were seeded on six-well plates. Cells were allowed to adhere overnight and then transfected with the p3TP-luc (neo) expression plasmid using PEI reagent (Sigma Aldrich). Transfected cells were cultured for four weeks in the presence of G418 (500 µg/mL). Several single clones were isolated and measured luciferase activity. The clone showing response to TGF-β1 treatment was used for reporter assay. HaCaT (3TP-luc) stable cells were seeded at 2.5 × 10^4 cells/well in 96-well plate and were allowed to adhere overnight. Cells were concomitantly treated with TGF-β1 (2 ng/mL) and indicated concentrations of ALK5 inhibitors in 0.2% FBS medium and incubated for 24 h at 37 °C in 5% CO2. Cell lysates were prepared using Luciferase Assay System (Promega) according to the manufacturer’s instruction, and luminescence was measured by a luminometer, Micro Lumat Plus (Berthold, Germany).
# Caco-2 cells = assay: Caco-2 cell permeability assay; type: in vitro ADME; conditions: 100 µM, AP to BL, 2 h; mean ± SD of quadruplicates
# Experimental: Caco-2 cells were seeded in Transwell® polycarbonate filter at a density of 8 × 10^4 cells/filter and cultured for 21 days. Culture medium was removed from both apical (AP) and basolateral (BL) chambers of transwell, and the wells were rinsed three times with PBS. AP buffer (HBSS, pH 6.5) containing 10 mM MES and BL buffer (HBSS, pH 7.4) containing 10 mM HEPES were loaded in AP (500 µL) and BL (1500 µL) chambers, respectively, followed by incubation for 30 min at 37 °C. Then, test compound (100 µM) was added to the AP side and incubated for 2 h at 37 °C. After the incubation, BL buffer was collected and analysed using an UV spectrophotometer at a maximum wavelength (wavelength 225–357 nm).
# To estimate oral absorption of target compounds, their permeability in a Caco-2 monolayer was evaluated at a concentration of 100 µM (Table 1).
# [2] = target: T1, purified human ALK5 kinase domain (Homo sapiens, UniProt P36897); assay: ALK5 kinase assay (33PanQinase, casein as substrate); type: biochemical; conditions: for IC50: casein substrate, 1 μM ATP, singlicate (11e: mean of triplicates); for fold less potent than the corresponding 6-methylpyridyl analogue / fold more inhibiting than the respective methylene linker analogue: vs 11a; for fold less potent than the corresponding 6-methylpyridyl analogue: 11e, 16a, 16e respectively; for fold more inhibiting than the respective methylene linker analogue: 11b, 11c, 11g respectively
# T1 construct: using the purified human ALK5 kinase domain produced in Sf9 insect cells; host or cells: Sf9 insect cells
# T1 sequence (P36897 205-495 limits assumed): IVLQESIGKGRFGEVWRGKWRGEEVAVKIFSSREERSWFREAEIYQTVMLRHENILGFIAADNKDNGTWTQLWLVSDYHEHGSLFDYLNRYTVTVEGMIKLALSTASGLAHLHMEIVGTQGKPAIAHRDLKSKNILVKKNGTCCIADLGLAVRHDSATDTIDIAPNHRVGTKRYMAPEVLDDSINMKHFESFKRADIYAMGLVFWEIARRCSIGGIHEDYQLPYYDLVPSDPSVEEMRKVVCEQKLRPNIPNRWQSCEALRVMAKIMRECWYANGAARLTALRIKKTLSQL
# Experimental: To evaluate whether these potential inhibitors 7a–c, 11a–h, and 16a–h could inhibit ALK5, a kinase assay was performed using the purified human ALK5 kinase domain produced in Sf9 insect cells and casein as a substrate (Table 1).
SMILES,Caco-2 permeability (%) (Caco-2 cells),IC50 [2],fold less potent than the corresponding 6-methylpyridyl analogue ([2]; kinase assay),fold more inhibiting than the respective methylene linker analogue [2],fold more inhibiting than the corresponding m-CONH2 analogues 16e and 16f ([2]; ethylene linker series),fold higher ALK5 inhibitory activity than 7a ([2]; kinase assay),fold higher ALK5 inhibitory activity than 7c ([2]; kinase assay),"fold more potent than the benzo[1,3]dioxol-5-yl analogue ([2]; 11a vs 7a, 16a vs 7b, kinase assay)",p3TP-luciferase activity (% control) [1],% inhibition in luciferase reporter assay [1]
"Cc1cccc(-c2[nH]c(CCCc3ccc(C(N)=O)cc3)nc2-c2ccc3c(c2)OCO3)n1 [Compound 7c, 4-(3-(4-(Benzo[d][1,3]dioxol-5-yl)-5-(6-methylpyridin-2-yl)-1H-imidazol-2-yl)propyl)benzamide]",32 ± 1.1%,338 nM,,,,,,,60 ± 9.5 % control,40 % inhibition
"CCCCc1cccc(-c2[nH]c(Cc3ccc(C(N)=O)cc3)nc2-c2ccc3nccnc3c2)n1 [Compound 11d, 4-((5-(6-n-Butylpyridin-2-yl)-4-(quinoxalin-6-yl)-1H-imidazol-2-yl)methyl)benzamide]",41 ± 5.3%,2700 nM,,,,,,,85 ± 32.5 % control,
"Cc1cccc(-c2[nH]c(Cc3ccc(C(N)=O)cc3)nc2-c2ccc3c(c2)OCO3)n1 [Compound 7a, 4-((4-(Benzo[d][1,3]dioxol-5-yl)-5-(6-methylpyridin-2-yl)-1H-imidazol-2-yl)methyl)benzamide]",35 ± 0.7^f %,224 nM,,,,,,,28 ± 7.1 % control,72 % inhibition
"CCc1cccc(-c2[nH]c(Cc3ccc(C(N)=O)cc3)nc2-c2ccc3nccnc3c2)n1 [Compound 11b, 4-((5-(6-Ethylpyridin-2-yl)-4-(quinoxalin-6-yl)-1H-imidazol-2-yl)methyl)benzamide]",26 ± 3.5%,112 nM,1.3 fold,,,,,,33 ± 21.3 % control,
"CC(C)c1cccc(-c2[nH]c(Cc3ccc(C(N)=O)cc3)nc2-c2ccc3nccnc3c2)n1 [Compound 11c, 4-((5-(6-Isopropylpyridin-2-yl)-4-(quinoxalin-6-yl)-1H-imidazol-2-yl)methyl)benzamide]",30 ± 9.0%,2190 nM,13–35 fold,,,,,,39 ± 11.4 % control,
"CC(C)c1cccc(-c2[nH]c(Cc3cccc(C(N)=O)c3)nc2-c2ccc3nccnc3c2)n1 [Compound 11g, 3-((5-(6-Isopropylpyridin-2-yl)-4-(quinoxalin-6-yl)-1H-imidazol-2-yl)methyl)benzamide]",34 ± 15.6%,1250 nM,13–35 fold,,,,,,69 ± 6.7 % control,
"CCCCc1cccc(-c2[nH]c(Cc3cccc(C(N)=O)c3)nc2-c2ccc3nccnc3c2)n1 [Compound 11h, 3-((5-(6-n-Butylpyridin-2-yl)-4-(quinoxalin-6-yl)-1H-imidazol-2-yl)methyl)benzamide]",,1040 nM,,,,,,,83 ± 21.1 % control,
"Cc1cccc(-c2[nH]c(CCc3ccc(C(N)=O)cc3)nc2-c2ccc3c(c2)OCO3)n1 [Compound 7b, 4-(2-(4-(Benzo[d][1,3]dioxol-5-yl)-5-(6-methylpyridin-2-yl)-1H-imidazol-2-yl)ethyl)benzamide]",23 ± 3.0%,93 nM,,,,2.4 fold,3.6 fold,,26 ± 7.9 % control,74 % inhibition
"Cc1cccc(-c2[nH]c(Cc3ccc(C(N)=O)cc3)nc2-c2ccc3nccnc3c2)n1 [Compound 11a, 4-((5-(6-Methylpyridin-2-yl)-4-(quinoxalin-6-yl)-1H-imidazol-2-yl)methyl)benzamide]",25 ± 1.3%,88 nM,,,,,,2.5 fold,16 ± 4.5 % control,84 % inhibition
"CCc1cccc(-c2[nH]c(Cc3cccc(C(N)=O)c3)nc2-c2ccc3nccnc3c2)n1 [Compound 11f, 3-((5-(6-Ethylpyridin-2-yl)-4-(quinoxalin-6-yl)-1H-imidazol-2-yl)methyl)benzamide]",38 ± 13.8%,75 nM,2.1 fold,,,,,,17 ± 3.7 % control,

# The next lines start with results.
Caco-2 permeability (%) (Caco-2 cells),IC50 [2],fold less potent than the corresponding 6-methylpyridyl analogue ([2]; kinase assay),fold more inhibiting than the respective methylene linker analogue [2],fold more inhibiting than the corresponding m-CONH2 analogues 16e and 16f ([2]; ethylene linker series),fold higher ALK5 inhibitory activity than 7a ([2]; kinase assay),fold higher ALK5 inhibitory activity than 7c ([2]; kinase assay),"fold more potent than the benzo[1,3]dioxol-5-yl analogue ([2]; 11a vs 7a, 16a vs 7b, kinase assay)",SMILES,p3TP-luciferase activity (% control) [1],% inhibition in luciferase reporter assay [1]
6% and 6 ± 4.1%,66 nM,1.4 fold,,,,,,"CCc1cccc(-c2[nH]c(CCc3cccc(C(N)=O)c3)nc2-c2ccc3nccnc3c2)n1 [Compound 16f, 3-(2-(5-(6-Ethylpyridin-2-yl)-4-(quinoxalin-6-yl)-1H-imidazol-2-yl)ethyl)benzamide]",56 ± 14.6 % control,
23 ± 3.1%,653 nM,13–35 fold,3.4 fold,,,,,"CC(C)c1cccc(-c2[nH]c(CCc3ccc(C(N)=O)cc3)nc2-c2ccc3nccnc3c2)n1 [Compound 16c, 4-(2-(5-(6-Isopropylpyridin-2-yl)-4-(quinoxalin-6-yl)-1H-imidazol-2-yl)ethyl)benzamide]",85 ± 38.9 % control,
25 ± 3.7%,41 nM,1.4 fold,2.7 fold,1.6 fold,,,,"CCc1cccc(-c2[nH]c(CCc3ccc(C(N)=O)cc3)nc2-c2ccc3nccnc3c2)n1 [Compound 16b, 4-(2-(5-(6-Ethylpyridin-2-yl)-4-(quinoxalin-6-yl)-1H-imidazol-2-yl)ethyl)benzamide]",16 ± 8.4 % control,84 % inhibition
0%,2880 nM,,,,,,,"CCCCc1cccc(-c2[nH]c(CCc3cccc(C(N)=O)c3)nc2-c2ccc3nccnc3c2)n1 [Compound 16h, 3-(2-(5-(6-n-Butylpyridin-2-yl)-4-(quinoxalin-6-yl)-1H-imidazol-2-yl)ethyl)benzamide]",92 ± 10.4 % control,
24 ± 1.9%,2380 nM,,,,,,,"CCCCc1cccc(-c2[nH]c(CCc3ccc(C(N)=O)cc3)nc2-c2ccc3nccnc3c2)n1 [Compound 16d, 4-(2-(5-(6-n-Butylpyridin-2-yl)-4-(quinoxalin-6-yl)-1H-imidazol-2-yl)ethyl)benzamide]",76 ± 5.7 % control,
21 ± 9.5%,47 nM,,,,,,,"Cc1cccc(-c2[nH]c(CCc3cccc(C(N)=O)c3)nc2-c2ccc3nccnc3c2)n1 [Compound 16e, 3-(2-(5-(6-Methylpyridin-2-yl)-4-(quinoxalin-6-yl)-1H-imidazol-2-yl)ethyl)benzamide]",7 ± 0.7 % control,93 % inhibition
0%,593 nM,13–35 fold,2.1 fold,,,,,"CC(C)c1cccc(-c2[nH]c(CCc3cccc(C(N)=O)c3)nc2-c2ccc3nccnc3c2)n1 [Compound 16g, 3-(2-(5-(6-Isopropylpyridin-2-yl)-4-(quinoxalin-6-yl)-1H-imidazol-2-yl)ethyl)benzamide]",48 ± 41.8 % control,
